Data as given in US12716904B2, “Compositions and methods for the detection of tuberculosis” (Washington University, priority 2021, dated 2026).

Key:
[1] = test system: M. tuberculosis (H37Rv strain); assay: Mtb growth in minimal media with a defined sole carbon source; conditions: 100 μg/mL
Helicobacter pylori = conditions: recent work; cited from earlier work
[2] = test system: M. tuberculosis (H37Rv strain); assay: Direct effect of cholestenone on Mtb growth in broth culture (absorbance, CFU); conditions: bacilli growing in broth culture
Mtb isocitrate lyase(s) = conditions: Mtb enzyme, methylcitrate cycle; cited from earlier work
[3] = test system: host and Mtb methylmalonyl-CoA mutase; conditions: host and Mtb enzyme; cited from earlier work

## C[C@H](CCCC(C)(C)O)[C@H]1CC[C@H]2[C@@H]3CC=C4C[C@@H](O)CC[C@]4(C)[C@H]3CC[C@]12C [25-HC, 25-hydroxycholesterol]
[1]
  growth of Mtb with the substance as sole carbon source: grew

## CC(C)CCC[C@@H](C)[C@H]1CC[C@H]2[C@@H]3CC=C4C[C@@H](O)CC[C@]4(C)[C@H]3CC[C@]12C [cholesterol]
[1]
  growth of Mtb with the substance as sole carbon source: grew

## CC(C)CCC[C@@H](C)[C@H]1CC[C@H]2[C@@H]3CCC4=CC(=O)CC[C@]4(C)[C@H]3CC[C@]12C [cholestenone, 4-cholesten-3-one]
Helicobacter pylori
  antimicrobial activity against Helicobacter pylori: has antimicrobial activity
[2]
  direct antimicrobial activity (toxicity) against Mtb: not directly toxic to Mtb

## C=C(CC(=O)O)C(=O)O [itaconate, itaconic acid]
Mtb isocitrate lyase(s)
  inhibition of isocitrate lyase(s): inhibits
[3]
  inhibition of methylmalonyl-CoA mutase: inhibits
